pIC50, pKi: −log10 of the molar value. The source made the active and inactive calls. The rule behind the calls is not given here.

By pIC50 is commonly meant −log10 of the IC50, conventionally taken in molar units. A lower pIC50 goes with a high IC50. What is called pKi is the Ki on a negative log10 scale, so that one unit is a factor of ten. A high value points to a small Ki.

Assay [1] concerns the target Vasopressin V1a receptor (Rattus norvegicus) (UniProt P30560). The experiment in a line: Displacement of [3H]AVP from vasopressin V1a receptor in rat liver membrane at 25 uM by competitive displacement assay. The format is cell membranes.
Assay [2] has the same target. The experiment in a line: Displacement of [3H]AVP from vasopressin V1a receptor in rat liver membrane at 50 uM by competitive displacement assay. The format is cell membranes. Background: In a radioligand displacement assay an active substance lowers the binding of a labelled ligand.
Assay [3] has as its target T1, Vasopressin V1a receptor (Rattus norvegicus, UniProt P30560). As to the kind of experiment: Displacement of [3H]AVP from vasopressin V1a receptor in rat liver membrane. The assay is classed as cell membranes.
The target in assay [4] is T1, Vasopressin V1a receptor. As to the kind of experiment: Displacement of [3H]AVP from vasopressin V1a receptor in rat liver membrane by competitive displacement assay. The format is cell membranes.
For assay [5], the target named is Vasopressin V1a receptor (Homo sapiens, UniProt P37288). As to the kind of experiment: Binding affinity to vasopressin V1a receptor.
Sequence of Vasopressin V1a receptor (Homo sapiens, UniProt P37288) (P37288 whole entry): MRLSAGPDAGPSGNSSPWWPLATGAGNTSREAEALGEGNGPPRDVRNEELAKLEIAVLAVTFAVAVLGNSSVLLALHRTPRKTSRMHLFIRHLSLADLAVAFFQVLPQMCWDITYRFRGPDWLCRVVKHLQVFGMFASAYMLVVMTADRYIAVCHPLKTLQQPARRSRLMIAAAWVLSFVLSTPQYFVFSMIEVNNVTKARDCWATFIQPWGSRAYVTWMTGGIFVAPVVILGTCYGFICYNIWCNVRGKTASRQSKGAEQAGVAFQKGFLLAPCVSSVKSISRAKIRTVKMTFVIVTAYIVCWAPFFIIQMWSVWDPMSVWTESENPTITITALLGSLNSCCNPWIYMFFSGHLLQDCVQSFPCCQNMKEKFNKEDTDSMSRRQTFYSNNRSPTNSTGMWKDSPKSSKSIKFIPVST

T1 sequence (P30560 whole entry): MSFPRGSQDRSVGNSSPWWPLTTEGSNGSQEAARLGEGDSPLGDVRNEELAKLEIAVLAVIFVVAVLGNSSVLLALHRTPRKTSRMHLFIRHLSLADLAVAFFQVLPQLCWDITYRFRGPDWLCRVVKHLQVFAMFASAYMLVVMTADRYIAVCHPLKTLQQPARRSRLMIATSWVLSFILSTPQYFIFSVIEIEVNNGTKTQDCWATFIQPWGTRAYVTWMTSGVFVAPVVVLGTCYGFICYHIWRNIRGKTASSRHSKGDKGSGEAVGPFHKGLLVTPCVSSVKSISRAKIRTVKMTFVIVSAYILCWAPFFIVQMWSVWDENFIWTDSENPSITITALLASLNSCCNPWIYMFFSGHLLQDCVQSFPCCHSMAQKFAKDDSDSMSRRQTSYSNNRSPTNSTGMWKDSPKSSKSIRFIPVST
Sequence of Vasopressin V1a receptor (Rattus norvegicus) (P30560 whole entry, looked up): as the sequence (P30560 whole entry) above

Regarding `C=C1[C@H]2CC[C@H](CO)[C@@]23CC[C@H](C3)C1(C)C` [KHUSIMOL], the inhibition entry in assay [1] and in assay [2] was “Active” throughout. Also, the pIC50 at Vasopressin V1a receptor [3] was 3.90. Moreover, the values for the pKi at Vasopressin V1a receptor [3] and on Vasopressin V1a receptor [4] were 4.39 and 4.28, respectively.
Turning to `CC(=O)NCCCOc1ccc(C(=O)N2CCC(N3C(=O)CCc4ccccc43)CC2)cc1`, the pKi on Vasopressin V1a receptor [5] was 6.46.

(Values after ChEMBL document CHEMBL1148067, “Khusimol, a non-peptide ligand for vasopressin V1a receptors” (J Nat Prod, 1994).)
